In patent publication US12571052B2, “Immunomodulatory RNA” (THE TRUSTEES OF THE UNIVERSITY OF PENNSYLVANIA, priority 2017, dated 2026):
“Also recorded” adds a separate entry of the source.

T1: recombinant RIG-I (Homo sapiens, UniProt O95786)
T1 sequence (O95786 1-925): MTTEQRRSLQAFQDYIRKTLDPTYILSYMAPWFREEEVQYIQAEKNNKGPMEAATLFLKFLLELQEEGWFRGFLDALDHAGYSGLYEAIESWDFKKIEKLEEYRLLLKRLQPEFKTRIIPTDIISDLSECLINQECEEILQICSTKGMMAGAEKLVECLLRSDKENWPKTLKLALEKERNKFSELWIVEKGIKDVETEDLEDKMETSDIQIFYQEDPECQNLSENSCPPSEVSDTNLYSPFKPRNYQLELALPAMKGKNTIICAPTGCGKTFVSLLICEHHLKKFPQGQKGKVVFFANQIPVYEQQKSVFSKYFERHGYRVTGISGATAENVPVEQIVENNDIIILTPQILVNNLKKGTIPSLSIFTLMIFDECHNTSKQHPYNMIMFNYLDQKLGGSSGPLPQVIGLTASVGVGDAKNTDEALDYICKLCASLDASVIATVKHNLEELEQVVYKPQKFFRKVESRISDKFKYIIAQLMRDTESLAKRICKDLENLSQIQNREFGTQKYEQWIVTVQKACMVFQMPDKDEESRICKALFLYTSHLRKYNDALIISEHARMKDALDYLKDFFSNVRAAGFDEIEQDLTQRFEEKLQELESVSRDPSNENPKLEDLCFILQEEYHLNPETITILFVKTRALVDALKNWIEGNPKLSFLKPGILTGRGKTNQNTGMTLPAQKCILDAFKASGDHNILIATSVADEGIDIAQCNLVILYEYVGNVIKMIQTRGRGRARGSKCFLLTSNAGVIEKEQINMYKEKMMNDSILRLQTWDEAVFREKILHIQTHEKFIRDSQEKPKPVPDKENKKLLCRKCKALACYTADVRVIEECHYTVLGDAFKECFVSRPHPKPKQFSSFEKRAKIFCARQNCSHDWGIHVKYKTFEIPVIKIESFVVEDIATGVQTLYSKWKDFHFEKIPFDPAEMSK

B1: SRP9: Recombinant SRP9 protein, GST tag cleaved with TEV protease (protein, UniProt P49458 2-86, looked up)
Signal recognition particle 9 …: PQYQTWEEFSRAAEKLYLADPMKARVVLKYRHSDGNLCVKVTDDLVCLVYKTDQAQDVKKIEKFHSQLMRLMVAKEARNVTMETE

Legend:
B16-F10 tumor cells [1] = experiment: B16-F10/MEF co-implantation, tumor growth and survival under checkpoint blockade; assay type: in vivo, C57BL/6 mice; settings: BLZ945 every 2 days for 2 weeks, anti-CTLA4 or anti-CTLA4 and anti-PD1, tumors with unshielded 7SL
Experimental: Wild type (WT) C57BL/6 mice were injected with 5×10^4 B16-F10 tumor cells subcutaneously in the flank with 5×10^4 MYC activated mouse embryonic fibroblasts (MEFs) or MYC activated MEFs co-expressing SRP9/14. MYC activation is inducible with 4-OHT and results in the secretion of exosomes containing unshielded 7SL1 RNA, while co-expression of SRP9/14 ensures the 7SL1 RNA remains relatively shielded, allowing measurement of the stimulatory capacity specifically of the unshielded form (Nabet B Y, et al. Cell. 2017; 170 (2): 352-366.e13). Mice were subsequently treated with the anti-CTLA-4 or anti-PD-1 antibody (or not), and then tumor growth was monitored by caliper. Endpoint criterion was considered a tumor measurement of 1.5 cm in any direction.
Tumors were implanted as described in FIGS. 25A-25B and treated with CSF1R inhibitor BLZ945 (Novartis) every 2 days for 2 weeks starting at day 0 to prevent M2 polarization of infiltrating myeloid cells. Mice were additionally treated with anti-CTLA4 (FIG. 27A) or anti-CTLA4 and anti-PD1 (FIGS. 27B and 27C) on days 5, 8, and 11. Tumor growth was monitored by caliper.

[2] = tested on: pancreatic ductal adenocarcinoma (PDA) tumor cells; experiment: PDA/MEF co-injection, tumor growth under ICB therapy; assay type: in vivo, mice; settings: BLZ945 with unshielded 7SL RNA, anti-CTLA4 and anti-PD1
Experimental: CSF1R inhibition in combination with unshielded 7SL RNA sensitizes PDA tumors to ICB therapy (FIGS. 28A-28B). 1×10^5 pancreatic ductal adenocarcinoma (PDA) tumor cells were co-injected with 1×10^5 MEFs (“myc-ER”) or MEFs co-expressing SRP9/14 (“myc-ER/SRP”) treated with 4OHT or EtOH. Mice were then treated with a combination of anti-CTLA4 and anti-PD1 antibodies (FIG. 28A) or a triple combination of anti-CTLA4, anti-PD1, and BLZ945 (FIG. 28B) using treatment schedules outlined in the study shown in FIGS. 27A-27C. Tumor growth was monitored by caliper.

B16-F10 tumor cells [3] = experiment: B16-F10/MEF co-implantation, tumor immune populations by flow cytometry; assay type: in vivo, C57BL/6 mice
Experimental: Mice were implanted with tumors as described FIGS. 25A-25B. Tumors were harvested 13 days later and assessed for infiltration of macrophages or myeloid derived suppressor cells (MDSCs). Macrophages are considered Lin−, F4/80+, and CD11b+ cells. MDSCs are considered Lin−, F4/80−, CD11c−, CD11b+, and Ly6C+ cells. Tumors were treated with anti-CTLA4 blocking antibody (FIG. 26D) as described in FIGS. 25A and 25B, and tumors were harvested at d15 to measure M2 polarization of macrophages as marked by CD206.
Furthermore, mice were implanted with the same tumors and subsequently treated with the CSF1R inhibitor BLZ945. Polarization of macrophages and frequency of CD103+DCs were tested.
In addition, mice were implanted with tumors and treated with anti-CTLA4+/−CSF1Ri BLZ945. Tumors were harvested 13 days later and immune populations were assessed using an unbiased clustering of flow cytometry data.
Mice were implanted with B16-F10 tumor cells mixed 1:1 with MEFs or MEFs co-expressing SRP9/14 (FIG. 35B). Tumors were harvested 2 weeks post-injection and analyzed for immune cell populations. Unshielded RN7SL1 increased the frequency of dendritic cells, the percentage of CD103+ dendritic cells, the percentage of CD69+CD8+ T cells, and the percentage of PD1+CD8+ T cells in tumors (FIG. 35C). […] Without wishing to be bound by theory, a CSF1R inhibitor blocks M2 polarization and may synergize with unshielded RN7SL1.

recombinant RIG-I = target: T1, recombinant RIG-I; experiment: RIG-I ATPase assay (ATP hydrolysis); assay type: biochemical
Experimental: RIG-I ATPase Assays. RIG-I ATPase assays were performed as previously described (Devarkar et al. (2016) Proc. Natl. Acad. Sci. 113, 596-601). In brief, increasing amounts of RNA (10-60 nM) were added to a constant quantity of RIG-I (5 nM) in the presence of 1 mM ATP. ATP hydrolysis was measured with the EnzChek Phosphate Assay Kit (ThermoFisher) after 60-90 minutes at 37° C. ATP hydrolysis was then measured by absorbance of 360 nm compared to background. A 19-mer 5′triphosphate dsRNA (Invivogen) and DVG396 were used as positive controls and a 19-mer 5′OH dsRNA (Invivogen) and an in vitro transcribed 300 bp ssRNA stretch of GAPDH (GAPDH300) were used as negative controls.

Molecule	response to checkpoint blockade with CSF1R inhibition (B16-F10 tumor cells [1])	response to checkpoint blockade with CSF1R inhibition (B16-F10 tumor cells [1]; listed as small molecule inhibitor of CSF1R)	sensitization of PDA tumors to ICB therapy [2]	activated CD4+ T cells in tumors (B16-F10 tumor cells [3]; anti-CTLA4 +/- CSF1Ri, high unshielded 7SL, 13 days)	frequency of M2 macrophages in the tumor (B16-F10 tumor cells [3]; high levels of unshielded 7SL RNA)	infiltration of cross-presenting CD103+ DCs (B16-F10 tumor cells [3]; high levels of unshielded 7SL RNA, CSF1R inhibition)	ATP hydrolysis by recombinant RIG-I after addition of SRP9 (recombinant RIG-I; SRP9 added to DVG396 or unrelated 5'ppp or 5'OH control RNAs)	ATP hydrolysis by recombinant RIG-I after addition of SRP9 (recombinant RIG-I; SRP9 added to in vitro transcribed RN7SL1)
CNC(=O)c1cc(Oc2ccc3nc(N[C@@H]4CCCC[C@H]4O)sc3c2)ccn1 [BLZ945]	allows tumors with high levels of unshielded 7SL to respond more robustly to checkpoint blockade; also recorded: enhanced the anti-tumor activity of an anti-PD1 antibody and an anti-CTLA-4 antibody	led to improved response in tumors with high levels of unshielded 7SL1	sensitizes PDA tumors to anti-PD-1 and anti-CTLA-4 antibody therapies	markedly increased	decreased the frequency of M2 macrophages found in the tumor	improving the infiltration of cross-presenting CD103+DCs		
B1							did not influence	partially inhibited ATP hydrolysis by recombinant RIG-I
